For nine compounds, GI50 and TGI results are on record in PubChem BioAssay (NCI).

Several values for one entry are separate records, joined by “and”; a condition that tells them apart may be missing. Identical values can stand only once.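 These data come from cells grown in 96-well plates and exposed to compound for 48 hours at five concentrations. GI50 = concentration required for 50% inhibition of growth. Definition used: TGI = concentration required for complete inhibition of growth.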

Common to all, as to assay: NCI anticancer screen, dose series, 48 h
For experiment [1], the system named is A498 renal.
Experiment [2] deals with M14 melanoma.
Experiment [3] has as its system CAKI-1 renal.
In experiment [4] the test system is HCT-15 colon.
In experiment [5] the test system is SW-620 colon.
For experiment [6], the system named is UACC-257 melanoma.
The test system of experiment [7] is MALME-3M melanoma.
Experiment [8] has as its system HS 578T breast.
For experiment [9], the system named is OVCAR-8 ovarian.
The test system of experiment [10] is SK-MEL-28 melanoma.

Regarding `O=C1Nc2ccccc2/C1=C/c1cn(C(=O)c2c(Cl)cccc2Cl)c2ccccc12`, the GI50 was 1.25 µM in experiment [1]; 2.34 µM in experiment [2]; 1.89 µM in experiment [3]; 3.46 µM in [4]; 2.9 µM in experiment [5]; 5 µM in experiment [6]. Further, the GI50 in experiment [7] was 2.61 µM; in experiment [8] it was 2.17 µM; in experiment [9], 4.12 µM. In addition, the TGI was determined as 4.32 µM in experiment [1]; 8.19 µM in experiment [2]; 5.77 µM in [3]; 22.6 µM in [4]; 12.5 µM in experiment [5]; 24.8 µM in experiment [6]. Also, the figures for the TGI in experiment [7], in [8] and in experiment [9] were 14.9 µM, 8.98 µM and 37.4 µM, respectively.

For `CN(C)c1ccc(/C=C/c2ccnc3ccccc23)cc1N`, the TGI is 22.3 µM in [1]; 25.1 µM in [2]; 26.3 µM in experiment [10]; 22.8 µM in experiment [4]; 33.3 µM in [5]; 7.75 µM in experiment [6]. In addition, the TGI in experiment [7] is 28.8 µM; in experiment [8], 61.3 µM; in [9], 22.1 µM.

Take `N#Cc1c(-c2ccc(Cl)cc2)c(-c2ccc(Cl)cc2)nn(CCOC(=O)CCC(=O)O)c1=O`: the TGI in [1] was 9.23 µM; in experiment [2] it was 28.5 µM; in experiment [3], 22.9 µM; in experiment [10], > 85.6 µM; in experiment [4], 4.97 µM; in [5], > 100 µM. For the same compound, the TGI is > 100 µM in [6], 74.9 µM in [7], 59.7 µM in experiment [8] and > 78.4 µM in [9].

For the compound `CC(C)=CCc1ccc(O)c(=O)cc1C(C)C`, the GI50 in [1] is 5.18 µM; in experiment [2] it was 0.68 µM; in experiment [3] it was 0.29 µM; in experiment [10], 0.917 µM; in experiment [4], 0.362 µM; in experiment [5], 0.566 µM. Moreover, the GI50 in experiment [6] was 1.59 µM; in [7], 0.966 µM; in experiment [8] it was 48.1 µM; in experiment [9] it was 0.413 µM. The TGI in experiment [1] is 64.7 µM; in experiment [2], 3.95 µM; in experiment [3] it was 2.4 µM; in experiment [10] it was > 100 µM; in experiment [4] it was > 100 µM; in [5], > 100 µM. In addition, the TGI in [6] is > 100 µM; in experiment [7] it was 9.39 µM; in experiment [8] it was > 100 µM; in [9], > 100 µM.

As to `COC(=O)c1cc2c3ccccc3n3c(=O)c4cc5cc(OC)c(N(S(=O)(=O)c6ccc(C)cc6)S(=O)(=O)c6ccc(C)cc6)cc5nc4c(n1)c23`, the GI50 in experiment [1] is 10.2 µM; in [2] it was 32.7 µM; in experiment [3], > 100 µM; in [10], > 100 µM; in experiment [4], > 100 µM; in experiment [5], > 100 µM. Also, the GI50 in experiment [6] was > 100 µM; in [7] it was > 100 µM; in experiment [8] it was 4.97 µM; in [9], 67.9 µM. Further, the TGI in [1] was 29.6 µM; in experiment [2] it was > 100 µM; in [3], > 100 µM; in experiment [10] it was > 100 µM; in experiment [4], > 100 µM; in experiment [5], > 100 µM. In addition, the TGI in experiment [6] is > 100 µM; in experiment [7] it was > 100 µM; in experiment [8], 54.2 µM; in experiment [9], > 100 µM.

As to `Nc1nc(Cl)c(N=Nc2ccc(Cl)cc2)c(NCC2(CO)CC(OCc3ccccc3)C2)n1` (centres undefined), the GI50 is 30.9 µM and > 100 µM and 20.2 µM in experiment [1]; 0.768 µM in [3]; 32.5 µM and > 95.4 µM and 15.6 µM in [6]; 17.9 µM and 10.1 µM in experiment [7]; 7.33 µM and 29.1 µM and 8.36 µM in [8]; 3.69 µM and 16.1 µM and 4.39 µM in experiment [9]. The TGI in [1] was 91.8 µM and > 100 µM and 44.1 µM; in [2], > 100 µM and 18.7 µM; in experiment [3], 3.68 µM and 14.2 µM and 5.52 µM; in experiment [10], > 100 µM and 33.4 µM; in experiment [4], > 100 µM and 20.1 µM; in experiment [5], > 100 µM and 20 µM. Further, the TGI is > 100 µM and 46 µM in [6]; 33.3 µM in [7]; 36.2 µM and > 100 µM and > 53.7 µM in experiment [8]; 16.3 µM and > 100 µM and 23.9 µM in [9].

Consider `COc1ccc(Cn2cc3c(c2-c2ccc(O)cc2)CCc2cnoc2-3)cc1`, for which the GI50 in [1] was 0.203 µM; in [2] it was 0.325 µM; in [3], 0.331 µM; in experiment [10] it was 0.616 µM; in [4] it was 0.395 µM; in [5] it was 0.295 µM. Further, the GI50 is 13.7 µM in experiment [6], 0.252 µM in experiment [8] and 0.633 µM in experiment [9]. Moreover, the TGI is 0.766 µM in experiment [1]; 16.5 µM in experiment [2]; 18.8 µM in experiment [3]; 21.7 µM in [10]; 21.6 µM in experiment [4]; 15.9 µM in experiment [5]. The results for the TGI in experiment [6], in experiment [8] and in experiment [9] were 30.6 µM, 6.62 µM and 23.6 µM, respectively.

`COc1ccc(/C(=N\O)c2cc(OC)c(OC)c(OC)c2)c(OC)c1N`: the GI50 is 3.75 µM in [1]; 2.98 µM in [2]; 4.38 µM in [3]; 2.64 µM in experiment [4]; 3.97 µM in experiment [5]; 8.5 µM in experiment [7]. Besides, the GI50 is 5.51 µM in [8] and 5.52 µM in [9]. Moreover, the TGI in [1], in [2], in [3], in experiment [4], in experiment [5] and in experiment [7] was > 100 µM throughout. For the same compound, the TGI in experiment [8] and in experiment [9] was > 100 µM throughout.

As for `COc1cc(C(=O)/C=C/c2c(-c3ccc(F)cc3)nc3ncccn23)cc(OC)c1OC`, the GI50 in experiment [1] is 2.2 µM; in experiment [10], 3.68 µM; in [6], 3.73 µM; in [7] it was 2.84 µM; in experiment [8], 2.01 µM; in experiment [9], 2.69 µM. Also, the TGI in experiment [1] is 7.58 µM; in experiment [10] it was > 100 µM; in experiment [6], > 100 µM; in experiment [7], 58 µM; in experiment [8] it was 11.2 µM; in experiment [9] it was > 100 µM.
